Test results: the NIST ThermoML archive (doi:10.1016/j.fluid.2010.08.022)

Settings: 101.33 kPa; for speed of sound: Sing-around technique in a fixed-path interferometer; for mass density: Vibrating tube method

CCCCCCCC/C=C\CCCCCCCC(=O)O.NCCO [2-hydroxyethylammonium oleate]
Settings | mass density [kg/m3] | speed of sound [m/s]
278.16 K, Crystal | 955.929 | 1635.4
278.41 K, Crystal | 955.757 | 1634.1
278.66 K, Crystal | 955.58 | 1632.7
278.9 K, Crystal | 955.409 | 1631.4
279.16 K, Crystal | 955.234 | 1630
279.41 K, Crystal | 955.057 | 1628.7
279.65 K, Crystal | 954.881 | 1627.4
279.91 K, Crystal | 954.704 | 1626.1
280.16 K, Crystal | 954.527 | 1624.7
280.41 K, Crystal | 954.349 | 1623.4
280.65 K, Crystal | 954.172 | 1622.1
280.91 K, Crystal | 953.991 | 1620.8
281.15 K, Crystal | 953.811 | 1619.5
281.41 K, Crystal | 953.63 | 1618.2
281.66 K, Crystal | 953.448 | 1616.8
281.91 K, Crystal | 953.266 | 1615.5
282.16 K, Crystal | 953.081 | 1614.2
282.41 K, Crystal | 952.898 | 1612.9
282.66 K, Crystal | 952.714 | 1611.6
282.91 K, Crystal | 952.526 | 1610.3
283.16 K, Crystal | 952.337 | 1608.9
283.41 K, Crystal | 952.15 | 1607.6
283.66 K, Crystal | 951.962 | 1606.3
283.91 K, Crystal | 951.769 | 1605
284.16 K, Crystal | 951.578 | 1603.6
284.41 K, Crystal | 951.383 | 1602.3
284.66 K, Crystal | 951.188 | 1600.8
284.91 K, Crystal | 950.989 | 1599.3
285.15 K, Crystal | 950.796 | 1597.7
285.4 K, Crystal | 950.604 | 1595.8
285.65 K, Crystal | 950.404 | 1592.8
285.9 K, Crystal | 950.405 | 1593.2
286.15 K, Liquid crystal of unknown type | 944.693 | 1554.4
286.4 K, Liquid crystal of unknown type | 944.221 | 1552.7
286.65 K, Liquid crystal of unknown type | 944.256 | 1553.3
286.9 K, Liquid crystal of unknown type | 943.886 | 1551.5
287.15 K, Liquid crystal of unknown type | 943.629 | 1550.2
287.4 K, Liquid crystal of unknown type | 943.416 | 1548.9
287.65 K, Liquid crystal of unknown type | 943.228 | 1547.7
287.9 K, Liquid crystal of unknown type | 943.055 | 1546.7
288.15 K, Liquid crystal of unknown type | 942.888 | 1545.7
288.4 K, Liquid crystal of unknown type | 942.726 | 1544.7
288.65 K, Liquid crystal of unknown type | 942.565 | 1543.7
288.9 K, Liquid crystal of unknown type | 942.405 | 1542.7
289.15 K, Liquid crystal of unknown type | 942.244 | 1541.8
289.4 K, Liquid crystal of unknown type | 942.083 | 1540.8
289.65 K, Liquid crystal of unknown type | 941.923 | 1539.9
289.9 K, Liquid crystal of unknown type | 941.764 | 1539
290.15 K, Liquid crystal of unknown type | 941.604 | 1538.1
290.4 K, Liquid crystal of unknown type | 941.445 | 1537.2
290.66 K, Liquid crystal of unknown type | 941.282 | 1536.2
290.9 K, Liquid crystal of unknown type | 941.124 | 1535.3
291.15 K, Liquid crystal of unknown type | 940.965 | 1534.4
291.4 K, Liquid crystal of unknown type | 940.805 | 1533.5
291.65 K, Liquid crystal of unknown type | 940.646 | 1532.6
291.91 K, Liquid crystal of unknown type | 940.485 | 1531.7
292.15 K, Liquid crystal of unknown type | 940.327 | 1530.8
292.41 K, Liquid crystal of unknown type | 940.167 | 1530
292.65 K, Liquid crystal of unknown type | 940.008 | 1529.1
292.9 K, Liquid crystal of unknown type | 939.848 | 1528.2
293.16 K, Liquid crystal of unknown type | 939.688 | 1527.3
293.4 K, Liquid crystal of unknown type | 939.529 | 1526.4
293.66 K, Liquid crystal of unknown type | 939.369 | 1525.5
293.9 K, Liquid crystal of unknown type | 939.211 | 1524.6
294.16 K, Liquid crystal of unknown type | 939.05 | 1523.7
294.41 K, Liquid crystal of unknown type | – | 1522.9
